# Tests used:
# [1] = tested on: Staphylococcus epidermidis ATCC 14990 biofilm; test: Effect of the lipopeptide on lens liquids against biofilms on 96-well polystyrene plates; format: cell-based; conditions: SE biofilm on polystyrene, lipopeptide alone in PBS, 24 h
# Description: (§1) Bacterial strains were obtained from the Polish Collection of Microorganisms (Polish Academy of Science, Wroclaw, Poland). Three Gram-positive and two Gram-negative strains linked with CL-related infections were chosen for the study (Staphylococus aureus ATCC 6538, Staphylococcus epidermidis ATCC 14990, Pseudomonas aeruginosa ATCC 9027, Escherichia coli ATCC 25922, and Enterococcus faecalis ATCC 29212). The bacteria were cultured in a Mueller Hinton Broth II (MHB, Biocorp, Warsaw, Poland) overnight, under aerobic conditions at 37 °C. […]
# (§2) Bacterial suspensions were added to 96-well plates (Kartell, Noviglio, Italy) at initial inoculums of ca. 5 × 10^8 CFU/mL and incubated under aerobic conditions with shaking (120 rpm) at 37 °C for 24 h. […] After 1.5 h of incubation, the absorbance was measured at 570 and 600 nm using a microplate reader (Thermo Fisher Scientific, Waltham, MA, USA). […] The metabolic activity of bacteria in the samples was measured according to the following formula:
# (§3) Positive controls (100%) were wells with pre-grown biofilms where the MHB II was replaced with pure PBS, while negative controls were wells with pure MHB II (also replaced with PBS). After 24 h of incubation (aerobic conditions, 120 rpm shaking, 37 °C), the solutions were replaced with resazurin in MHB II and the results were read and presented as described in Section 4.3.
# [2] = tested on: Enterococcus faecalis ATCC 29212 biofilm; test: as above; format: cell-based; conditions: EF biofilm on polystyrene, lipopeptide alone in PBS, 'the same concentration' (32 or 16 mg/L), 24 h
# Description: as §1, §2, §3
# [3] = tested on: Staphylococus aureus ATCC 6538 biofilm on CLs; test: Activity of lipopeptide and CL liquids against biofilms formed on contact lenses; format: cell-based, Staphylococcus aureus; conditions: SA biofilm on CLs, lipopeptide in PBS, 24 h, resazurin
# Description: Bacterial strains were obtained from the Polish Collection of Microorganisms (Polish Academy of Science, Wroclaw, Poland). Three Gram-positive and two Gram-negative strains linked with CL-related infections were chosen for the study (Staphylococus aureus ATCC 6538, Staphylococcus epidermidis ATCC 14990, Pseudomonas aeruginosa ATCC 9027, Escherichia coli ATCC 25922, and Enterococcus faecalis ATCC 29212). The bacteria were cultured in a Mueller Hinton Broth II (MHB, Biocorp, Warsaw, Poland) overnight, under aerobic conditions at 37 °C. After incubation, the liquid cultures were centrifuged (2500 rpm for 10 min) and washed with phosphoric buffer (PBS, AppliChem, Darmstadt, Germany) three times and resuspended in fresh MHB II for inoculums appropriate for the performed assays.
# Bacterial biofilms were cultured on commercially available CLs (1-Day Acuvue Moist, containing Etafilcon A, obtained from Johnson and Johnson Vision Care, Jacksonsville, FL, USA). The CLs were placed in polystyrene 24-well plates (Orange Scientific, Braine-l’Alleud, Belgium) in bacterial suspensions in MHB II at initial inoculums of ca. 5 × 10^8 CFU/mL. After 24 h of incubation (aerobic conditions, 120 rpm shaking, 37 °C), all of the CLs were rinsed three times with PBS. […] After incubation, resazurin was added (final concentration per sample = 0.01%) and absorbance was measured as in the assays 4.3 and 4.4. […]
# [4] = tested on: Pseudomonas aeruginosa ATCC 9027 biofilm; test: Activity against biofilms formed on polystyrene 96-well plates, 24 h exposure, resazurin; format: cell-based; conditions: lowest concentration reducing metabolic activity by at least 50 ± 5%; polystyrene plate, 24 h exposure in MHB II, resazurin
# Description: (§4) Bacterial strains were obtained from the Polish Collection of Microorganisms (Polish Academy of Science, Wroclaw, Poland). […] The bacteria were cultured in a Mueller Hinton Broth II (MHB, Biocorp, Warsaw, Poland) overnight, under aerobic conditions at 37 °C. After incubation, the liquid cultures were centrifuged (2500 rpm for 10 min) and washed with phosphoric buffer (PBS, AppliChem, Darmstadt, Germany) three times and resuspended in fresh MHB II for inoculums appropriate for the performed assays.
# (§5) Bacterial suspensions were added to 96-well plates (Kartell, Noviglio, Italy) at initial inoculums of ca. 5 × 10^8 CFU/mL and incubated under aerobic conditions with shaking (120 rpm) at 37 °C for 24 h. […] After exposure, the wells were washed three times with PBS and a solution of resazurin (Sigma Aldrich, St. Louis, MO, USA) in MHB II (0.01%) was added. This cell viability reagent is metabolized by bacterial dehydrogenases upon contact with living cells. As a result, the blue dye is reduced to a pink resorufin. After 1.5 h of incubation, the absorbance was measured at 570 and 600 nm using a microplate reader (Thermo Fisher Scientific, Waltham, MA, USA). […] The metabolic activity of bacteria in the samples was measured according to the following formula:
# (§6) Metabolic activity (%) = (ΔAbs of sample − ΔAbs of negative control)/(ΔAbs of positive control − ΔAbs of negative control);
# (§7) ΔAbs = absorbance at 570 nm − absorbance at 600 nm;
# (§8) The presented results are the means of nine results obtained on three different days.
# [5] = tested on: Staphylococcus epidermidis ATCC 14990 biofilm; test: as above; format: cell-based; conditions: polystyrene plate, 24 h exposure in MHB II, resazurin
# Description: as §4, §5, §6, §7, §8
# [6] = tested on: Enterococcus faecalis ATCC 29212 biofilm; test: as above; format: cell-based; conditions: polystyrene plate, 24 h exposure in MHB II
# Description: as §4, §5, §6, §7, §8
# [7] = tested on: Staphylococus aureus ATCC 6538 biofilm; test: as above; format: cell-based, Staphylococcus aureus
# Description: as §4, §5, §6, §7, §8
# [8] = tested on: Staphylococus aureus ATCC 6538 biofilm; test: Effect of the lipopeptide on lens liquids against biofilms on 96-well polystyrene plates; format: cell-based, Staphylococcus aureus; conditions: SA biofilm on polystyrene, lipopeptide alone in PBS, 24 h
# Description: as §1, §2, §3
# [9] = tested on: human cells (keratinocytes, erythrocytes); conditions: cited from earlier work
# From the text: PA was also the most difficult strain to eliminate from the surface of CL in the previous study, in which we investigated amphibian peptides and short lipopeptides containing hexadecanoic acid according to their potential application as CL solution additives. The results of performed antimicrobial assays were also very promising. However, due to high toxicity towards human keratinocytes in vitro, the ocular applications of lipopeptides with hexadecanoic acid are not worth further consideration. In contrast to those lipopeptides, the compound with two residues of decanoic aci ... || The excellent antimicrobial activity was previously reported for many lipopeptides. This, along with the relatively low production costs, has encouraged many research groups to study their antimicrobial activities and design molecules with optimal properties. C16-KK-NH2 is one of such extensively studied compounds. […] Other derivatives ...
# [10] = lowest concentration reducing metabolic activity by at least 50 ± 5%
# [11] = lowest concentration reducing metabolic activity by at least 90 ± 5%, mean of nine results
substance,measurement,setting,value
(C10)2-KKKK-NH2 [Lipopeptide],concentration at which highly active against biofilm,[1],16 mg/L
same,reduction of metabolic activity in the biofilm,[2],ca. 95%
same,concentration reducing metabolic activity of bacteria by at least 90%,[3],16 mg/L
same,MBEC 50,[4],64 mg/L
same,MBEC 50,[5]; [10],16 mg/L
same,MBEC 90,[5]; [11],16 mg/L
same,MBEC 50,[6]; [10],16 mg/L
same,MBEC 90,[6]; [11],32 mg/L
same,reduction in the metabolic activity,"[7]; SA biofilm on polystyrene, 24 h exposure, 32 mg/L and higher",over 90%
same,MBEC 50,"[7]; lowest concentration reducing metabolic activity by at least 50 ± 5%, polystyrene plate, 24 h exposure in MHB II, resazurin",8 mg/L
same,MBEC 90,"[7]; lowest concentration reducing metabolic activity by at least 90 ± 5%, polystyrene plate, 24 h exposure in MHB II, resazurin, mean of nine results",32 mg/L
same,concentration at which highly active against biofilm,[8],32 mg/L
same,toxicity towards human cells in vitro,[9],does not exhibit toxicity
